What is called Ki is a dissociation constant, usually derived from enzyme kinetics or from competition with a known ligand.

Structures are written as SMILES. Where two headings read alike, the source gives them in different places.

The text below walks through data of paper PMC3994546 (Chemico-biological interactions, 2014).

For assay [1], the target named is T1, hSULT2A1 (Homo sapiens, UniProt Q06520).
T1 sequence (Q06520 1-285): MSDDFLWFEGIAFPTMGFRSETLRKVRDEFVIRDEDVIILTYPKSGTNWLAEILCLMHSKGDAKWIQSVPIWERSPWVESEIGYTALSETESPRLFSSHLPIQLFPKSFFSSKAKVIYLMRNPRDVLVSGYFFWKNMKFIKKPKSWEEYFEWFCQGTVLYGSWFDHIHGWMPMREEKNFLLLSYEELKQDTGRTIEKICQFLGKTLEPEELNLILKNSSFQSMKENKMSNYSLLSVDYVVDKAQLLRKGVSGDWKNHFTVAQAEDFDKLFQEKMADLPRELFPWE
Nature of the assay: Kinetics of inhibition of hSULT2A1-catalyzed sulfation of [3H]DHEA by OHPCBs. Format: biochemical. The following applies: for type of inhibition with respect to DHEA (best-fit kinetic model): fixed PAPS, varied DHEA and inhibitor, model chosen by R2 and AICc; for β value of partial noncompetitive inhibition equation: signifies formation of DHEA-sulfate in the presence of the inhibitor.

The target of assay [2] is T1, hSULT2A1. Briefly: Ligand binding to free hSULT2A1 by ANS fluorescence displacement. The following applies: for difference in the multiphasic binding pattern in the presence or absence of either DHEA or PAP: with or without DHEA or PAP.
Assay [3] addresses T1, hSULT2A1. The note with it: cited from earlier work.
The target of another assay is T2, hSULT2A1 E-PAP complex (Homo sapiens, UniProt Q06520).
T2 sequence (Q06520 1-285): T1 sequence (Q06520 1-285)
Briefly: Ligand binding to the hSULT2A1-PAP complex by ANS fluorescence displacement.

For the compound `Oc1ccc(-c2ccc(Cl)cc2)cc1O` [3’,4’-diOHPCB 3, 3’, 4’-dihydroxy-4-monochlorobiphenyl], the affinity at hSULT2A1 [1] corresponds to a Ki of 32 ± 2.3 µM. Further, the Kd on hSULT2A1 [2] was determined as 1.17 ± 1.11 µM; at hSULT2A1 [2] (read-out: Kd2, binding to hSULT2A1 in the absence of substrates or products, free enzyme, two-site, nonspecific binding curve), 41.9 ± 74.8 µM.
On hSULT2A1 [1], `Oc1ccc(-c2cccc(Cl)c2Cl)cc1O` [3’,4’-diOHPCB 5, 3’, 4’- dihydroxy-2,3-dichlorobiphenyl] returned a Ki of 14 ± 0.8 µM.
`Oc1ccc(-c2ccc(Cl)cc2)c(Cl)c1` [4-OHPCB 8, 4-hydroxy-2, 4’-dichlorobiphenyl] came in with a Ki on hSULT2A1 [1] of 5 ± 0.4 µM. Also, the “substrate for hSULT2A1-catalyzed sulfation” value (“substrate” below) on hSULT2A1 [3] is reported as “served as alternate substrates”.
Regarding `Oc1ccc(-c2cccc(Cl)c2)cc1Cl` [4-OHPCB 11, 4-hydroxy-3, 3’-dichlorobiphenyl], the Ki on hSULT2A1 [1] came out at 12 ± 0.9 µM. Besides, the “substrate” value on hSULT2A1 [3] is “served as alternate substrates”.
The compound `Oc1c(Cl)cc(-c2ccccc2)cc1Cl` [4-OHPCB 14, 4-hydroxy-3,5-dichlorobiphenyl] showed a Ki on hSULT2A1 [1] of 13.5 ± 1 µM. In addition, the Kd on hSULT2A1 [2] was 2.55 ± 0.63 µM; on hSULT2A1 E-PAP complex, 2.21 ± 0.5 µM. For the same compound, the “binding pattern to hSULT2A1 (ANS displacement)” value (“binding pattern to hSULT2A1” for short) on hSULT2A1 [2] (free enzyme) is “classical single-site binding characteristics”. In addition, the “substrate” value on hSULT2A1 [3] is given as “served as alternate substrates”.
`Oc1c(Cl)cc(-c2ccccc2Cl)cc1Cl` [4-OHPCB 34, 4-hydroxy-2’, 3,5-trichlorobiphenyl] returned a Ki on hSULT2A1 [1] of 0.8 ± 0.1 µM. Further, the Kd on hSULT2A1 [2] was found to be 2.07 ± 0.3 µM; at hSULT2A1 E-PAP complex, 3.2 ± 0.31 µM. Besides, the “binding pattern to hSULT2A1” value on hSULT2A1 [2] (free enzyme) is “classical single-site binding characteristics”. Also, the “substrate” value at hSULT2A1 [3] is on record as “served as alternate substrates”.
Take `Oc1c(Cl)cc(-c2cccc(Cl)c2)cc1Cl` [4-OHPCB 36, 4-hydroxy-3, 3’, 5-trichlorobiphenyl]: on hSULT2A1 [1], the Ki worked out at 3.4 ± 0.8 µM, the “α value of partial competitive inhibition equation” value turned out to be 4.2 and the “type of inhibition with respect to DHEA (best-fit kinetic model)” value (from here on “type of inhibition with respect to DHEA”) is “partial competitive inhibition”. Also, the Kd at hSULT2A1 [2] came out at 2.46 ± 0.43 µM. Also, the “substrate” value on hSULT2A1 [3] is “served as alternate substrates”.
On to `Oc1ccc(-c2ccc(Cl)cc2)cc1` [4’-OHPCB 3, 4’-hydroxy-4-monochlorobiphenyl], for which the Ki on hSULT2A1 [1] was found to be 17 ± 1.5 µM. This compound gave a Kd on hSULT2A1 [2] of 3.48 ± 1.03 µM.
Turning to `Oc1ccc(-c2ccccc2Cl)cc1Cl` [4’-OHPCB 6, 4’-hydroxy-2, 3’-dichlorobiphenyl], at hSULT2A1 [1], affinity was put at a Ki of 5.4 ± 0.2 µM and the “type of inhibition with respect to DHEA” value is on record as “noncompetitive”.
On to `Oc1ccc(-c2cc(Cl)ccc2Cl)cc1` [4’-OHPCB 9, 4’-hydroxy-2,5-dichlorobiphenyl], for which, on hSULT2A1 [1], the Ki worked out at 0.7 ± 0.1 µM, the “type of inhibition with respect to DHEA” value is “partial noncompetitive inhibition” and the “β value of partial noncompetitive inhibition equation” value worked out at 0.11 ± 0.02. Further, the “binding pattern to hSULT2A1” value at hSULT2A1 [2] (free enzyme) is on record as “multiphasic binding”. On hSULT2A1 [2], the “difference in the multiphasic binding pattern in the presence or absence of either DHEA or PAP” value is on record as “did not show significant differences”.
For `Oc1ccc(-c2ccc(Cl)c(Cl)c2)cc1` [4’-OHPCB 12, 4’-hydroxy-3,4-dichlorobiphenyl], affinity on hSULT2A1 [1] was put at a Ki of 4 ± 0.3 µM.
For the compound `Oc1ccc(-c2ccc(Cl)cc2Cl)cc1Cl` [4’-OHPCB 25, 4’-hydroxy-2, 3’, 4-trichlorobiphenyl], at hSULT2A1 [1], the Ki turned out to be 3 ± 0.6 µM, the “type of inhibition with respect to DHEA” value is “partial noncompetitive inhibition” and the “β value of partial noncompetitive inhibition equation” value was 0.19 ± 0.06. Further, at hSULT2A1 [3], the “substrate” value is reported as “served as alternate substrates”.
As to `Oc1ccc(-c2ccc(Cl)c(Cl)c2)c(Cl)c1` [4’-OHPCB 33, 4’-hydroxy-2’, 3,4-trichlorobiphenyl], the Ki at hSULT2A1 [1] was 3 ± 0.2 µM. The “binding pattern to hSULT2A1” value at hSULT2A1 [2] (free enzyme) is “multiphasic binding”. Besides, the “difference in the multiphasic binding pattern in the presence or absence of either DHEA or PAP” value at hSULT2A1 [2] was “did not show significant differences”. Also, at hSULT2A1 [3], the “substrate” value was “served as alternate substrates”.
Regarding `Oc1c(Cl)cc(-c2ccc(Cl)cc2Cl)cc1Cl` [4’-OHPCB 68, 4’-hydroxy-2, 3’, 4, 5’-tetrachlorobiphenyl], on hSULT2A1 [1], the Ki came to 0.6 ± 0.1 µM, the “type of inhibition with respect to DHEA” value is “partial noncompetitive inhibition” and the “β value of partial noncompetitive inhibition equation” value is recorded as 0.23 ± 0.07. Moreover, the Kd at hSULT2A1 [2] was 2.26 ± 0.33 µM. Also, the “substrate” value on hSULT2A1 [3] is listed as “served as alternate substrates”.
In the case of `Oc1ccc(Cl)cc1-c1ccc(Cl)c(Cl)c1` [6’-OHPCB 35, 6’-hydroxy-3, 3’-4 trichlorobiphenyl], the Ki on hSULT2A1 [1] (read-out: Ki, inhibition of the sulfation of DHEA catalyzed by hSULT2A1, nonlinear regression fit to noncompetitive inhibition equation (4-OHPCB 36: competitive inhibition equation), 200 µM PAPS, pH 7.0, 37°C) stood at 9 ± 0.5 µM. In addition, the “binding pattern to hSULT2A1” value at hSULT2A1 [2] (free enzyme) is “multiphasic behavior”.
